Test: Dissolvability of insecticide in solvent
Assay type: physicochemical
Excerpt: It has been determined that certain polar solvents are capable of dissolving at least 10 grams of the insecticide per liter of solvent. For example, it has also been determined that water is not a sufficient polar solvent for certain insecticides, such as fipronil, because it is capable of only dissolving 2.4 milligrams per liter of water. Generally, these polar solvents that are capable of dissolving at least 10 grams of the insecticide per liter are selected from at least one of an alcohol, a ketone, and an ester. More preferably, the polar solvent is selected from the group of octyl alcohol, isopropyl alcohol, methyl alcohol, acetone, carpryl alcohol, propylene carbonate, gamma-butyrolactone, 3-pentanone, 1-methyl-2-pyrrolidinone, and combinations thereof.
In Examples 1 and 2, the lignocellulosic composite material was formed having a thickness of 0.437 inches with a density of about 39 lb/ft^3. […] The fipronil was present in an amount of about 150 PPM based on the dry weight of the lignocellulosic particles. In Example 2, 0.28 grams of fipronil were dissolved in 1.00 grams of the polar solvent to form the insecticide solution. The fipronil was present in an amount of about 30 PPM based on the dry weight of the lignocellulosic particles. The polar solvent was 1-methyl-2-pyrrolidinone (NMP). NMP is capable of dissolving about 289 grams of fipronil per liter of NMP.
In Examples 3 and 4, the lignocellulosic composite material was formed having a thickness of 0.719 inches with a density of about 40 lb/ft^3. In Example 3, 1.15 grams of fipronil were dissolved in 5 grams of the polar solvent to form the insecticide solution. The fipronil was present in an amount of about 50 PPM based on the dry weight of the lignocellulosic particles. […] The fipronil was present in an amount of about 100 PPM based on the dry weight of the lignocellulosic particles. The polar solvent in Examples 3 and 4 was 3-pentanone, which is capable of dissolving about 326 grams of fipronil per liter of 3-pentanone.

N#Cc1nn(-c2c(Cl)cc(C(F)(F)F)cc2Cl)c(N)c1[S+]([O-])C(F)(F)F (stereo not drawn) [fipronil, 5-amino-1-(2,6-dichloro-4-(trifluoromethyl)phenyl)-4-((trifluoromethyl)sulfinyl)-1H-pyrazole-3-carbonitrile]
amount dissolved per liter of NMP (solvent 1-methyl-2-pyrrolidinone (NMP)): about 289 grams per liter
amount dissolved per liter of 3-pentanone (solvent 3-pentanone): about 326 grams per liter
amount dissolved per liter of water (solvent water): 2.4 milligrams per liter

Reference: US20080190575A1, “Lignocellulosic Composite Material and Method for Preparing the Same” (priority 2004, published 2008)
